Legend:
Type in all cases: in vivo
[1] = system: Digitaria sanguinalis (DIGSA); experiment: Herbicidal post-emergence action (D), 320 g/ha; conditions: ca. 3 weeks
Excerpt: (§1) Seeds of mono- and dicotyledonous weed plants and crop plants were sown, in plastic or organic planting pots, in sandy loam, covered with soil and grown in a greenhouse under controlled growth conditions. 2 to 3 weeks after sowing, the test plants were sprayed in the single-leaf stage. The compounds according to the invention, formulated in form of wettable powders (WP) or as emulsifiable concentrates (EC), were sprayed onto the green plant parts as aqueous suspension or emulsion, with the addition of 0.5% of an additive, at an application rate of 600 l of water/ha (converted). The test plants were placed in the greenhouse for ca. 3 weeks under optimum growth conditions, and then the effect of the preparations was assessed visually in comparison with untreated controls (herbicidal effect in percent (%): 100% effect=plants have died off, 0% effect=as control plants).
(§2) Tables D1 to D13 below show the effects of selected compounds of the general formula (I) according to table 1 on various harmful plants and an application rate corresponding to 320 g/ha obtained by the experimental procedure mentioned above.

[2] = system: Abutilon theophrasti (ABUTH); experiment: Herbicidal pre-emergence action (C), 320 g/ha; conditions: ca. 3 weeks
Outline: (§3)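 Greenhouse pre-emergence trial with compounds sprayed onto soil above sown seeds in sandy loam (aqueous WP or EC, 0.5% additive, 600 l water/ha); effect scored by eye at roughly 3 weeks as percent damage versus controls.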

Viola tricolor (VIOTR) [3] = experiment: Herbicidal pre-emergence action (C), 320 g/ha; conditions: ca. 3 weeks
Outline: as §3

[4] = system: Polygonum convolvulus (POLCO); experiment: Herbicidal pre-emergence action (C), 320 g/ha; conditions: ca. 3 weeks
Outline: as §3

Avena fatua [5] = experiment: Herbicidal pre-emergence action (C), 320 g/ha; conditions: ca. 3 weeks
Outline: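 Weed and crop seeds sown in sandy loam; WP or EC formulations applied pre-emergence to the soil surface as aqueous suspension/emulsion with 0.5% additive at 600 l water/ha. Greenhouse-grown under optimum conditions; damage visually scored after ca. 3 weeks versus untreated controls (0% = as control, 100% = plants dead).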

[6] = system: Kochia scoparia (KCHSC; Bassia scoparia); experiment: Herbicidal post-emergence action (B), 1280 g/ha
Outline: (§4)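 Foliar post-emergence treatment of one-leaf-stage weeds with WP or EC preparations in water plus 0.5% additive, sprayed at 600 L/ha. Visual efficacy was assessed after roughly 3 weeks relative to untreated controls, 100% being complete kill.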

Lolium rigidum (LOLRI) [7] = experiment: Herbicidal post-emergence action (B), 1280 g/ha; conditions: one-leaf stage, rated after about 3 weeks vs untreated controls, 100% activity = the plants have died, 0% = like control plants
Outline: as §4

Poa annua (POAAN) = experiment: Herbicidal post-emergence action (B), 1280 g/ha; conditions: rated visually after about 3 weeks vs untreated controls
Outline: as §4

Setaria viridis (SETVI) [8] = experiment: Herbicidal post-emergence action (B), 1280 g/ha; conditions: rated visually after about 3 weeks vs untreated controls
Outline: as §4

[9] = system: Amaranthus retroflexus (AMARE); experiment: Herbicidal post-emergence action (B), 1280 g/ha; conditions: rated visually after about 3 weeks vs untreated controls
Outline: as §4

[10] = system: Abutilon theophrasti (ABUTH); experiment: Herbicidal post-emergence action (B), 1280 g/ha; conditions: rated visually after about 3 weeks vs untreated controls
Outline: as §4

[11] = system: Alopecurus myosuroides (ALOMY); experiment: Herbicidal post-emergence action (B), 1280 g/ha; conditions: rated visually after about 3 weeks vs untreated controls
Outline: as §4

Stellaria media (STEME) [12] = experiment: Herbicidal post-emergence action (B), 1280 g/ha
Outline: as §4

Veronica persica (VERPE) = experiment: Herbicidal post-emergence action (B), 1280 g/ha
Outline: as §4

[13] = system: Echinochloa crus-galli (ECHCG); experiment: Herbicidal post-emergence action (B), 1280 g/ha; conditions: rated visually after about 3 weeks vs untreated controls
Outline: as §4

Lolium rigidum (LOLRI) [14] = experiment: Herbicidal post-emergence action (D), 320 g/ha; conditions: ca. 3 weeks
Outline: (§5)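 Scores are percent visual control, where 100% means plants died and 0% means no difference from untreated, taken roughly 3 weeks after a single foliar application at 600 l water/ha with 0.5% additive to single-leaf-stage greenhouse plants grown in sandy loam.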

Setaria viridis (SETVI) [15] = experiment: Herbicidal post-emergence action (D), 320 g/ha; conditions: ca. 3 weeks
Outline: as §5

[16] = system: Abutilon theophrasti (ABUTH); experiment: Herbicidal post-emergence action (D), 320 g/ha; conditions: ca. 3 weeks
Outline: as §5

[17] = system: Matricaria inodora (MATIN); experiment: Herbicidal pre-emergence action (C), 320 g/ha; conditions: ca. 3 weeks
Outline: as §3

[18] = system: Digitaria sanguinalis (DIGSA); experiment: Herbicidal post-emergence action (B), 1280 g/ha; conditions: rated visually after about 3 weeks vs untreated controls
Outline: as §4

[19] = system: Matricaria inodora (MATIN); experiment: Herbicidal post-emergence action (B), 1280 g/ha; conditions: rated visually after about 3 weeks vs untreated controls
Outline: as §4

Stellaria media (STEME) [20] = experiment: Herbicidal pre-emergence action (C), 320 g/ha; conditions: visual grading after ca. 3 weeks vs untreated controls, 100% = plants have died off, 0% = as control plants
Outline: as §3

Stellaria media (STEME) [21] = experiment: Herbicidal post-emergence action (D), 320 g/ha; conditions: ca. 3 weeks
Outline: as §5

Avena fatua [22] = experiment: Herbicidal post-emergence action (D), 320 g/ha; conditions: ca. 3 weeks
Excerpt: as §1, §2

Viola tricolor (VIOTR) [23] = experiment: Herbicidal post-emergence action (D), 320 g/ha; conditions: ca. 3 weeks
Outline: as §5

Structure (SMILES): Cc1cc2scnc2nc1-c1ccccc1Cl [Example I-045]
- herbicidal effect DIGSA [1]: 90%
- herbicidal effect ABUTH [2]: 80%
- herbicidal effect VIOTR (Viola tricolor (VIOTR) [3]): 80%
- herbicidal effect POLCO [4]: 80%
- herbicidal effect AVEFA (Avena fatua [5]): 90%
- herbicidal effect KCHSC [6]: 90%
- LOLRI, activity rated visually (%) (Lolium rigidum (LOLRI) [7]): 90%
- herbicidal activity POAAN (Poa annua (POAAN)): 100%
- herbicidal activity SETVI (Setaria viridis (SETVI) [8]): 100%
- herbicidal activity AMARE [9]: 90%
- herbicidal activity ABUTH [10]: 90%
- herbicidal activity ALOMY [11]: 100%
- herbicidal effect STEME (Stellaria media (STEME) [12]): 100%
- herbicidal effect VERPE (Veronica persica (VERPE)): 90%
- herbicidal activity ECHCG [13]: 100%
- herbicidal effect LOLRI (Lolium rigidum (LOLRI) [14]): 80%
- herbicidal effect SETVI (Setaria viridis (SETVI) [15]): 80%
- herbicidal effect ABUTH [16]: 90%

Structure (SMILES): CCc1cc2scnc2nc1-c1ccccc1C [Example I-093]
- herbicidal effect MATIN [17]: 90%
- herbicidal effect AVEFA (Avena fatua [5]): 80%
- herbicidal effect KCHSC [6]: 100%
- LOLRI, activity rated visually (%) (Lolium rigidum (LOLRI) [7]): 100%
- herbicidal activity POAAN (Poa annua (POAAN)): 100%
- herbicidal activity SETVI (Setaria viridis (SETVI) [8]): 100%
- herbicidal activity AMARE [9]: 100%
- herbicidal activity ABUTH [10]: 100%
- herbicidal activity ALOMY [11]: 100%
- herbicidal activity DIGSA [18]: 100%
- herbicidal effect STEME (Stellaria media (STEME) [12]): 100%
- herbicidal activity MATIN [19]: 100%
- herbicidal effect VERPE (Veronica persica (VERPE)): 100%
- herbicidal activity ECHCG [13]: 100%
- herbicidal effect LOLRI (Lolium rigidum (LOLRI) [14]): 80%

Structure (SMILES): CCc1cc2scnc2nc1-c1ccccc1 [Example I-051]
- herbicidal effect DIGSA [1]: 80%
- herbicidal effect ABUTH [2]: 90%
- herbicidal effect MATIN [17]: 90%
- herbicidal effect VIOTR (Viola tricolor (VIOTR) [3]): 100%
- herbicidal effect POLCO [4]: 80%
- herbicidal effect AVEFA (Avena fatua [5]): 90%
- herbicidal effect KCHSC [6]: 90%
- LOLRI, activity rated visually (%) (Lolium rigidum (LOLRI) [7]): 100%
- herbicidal activity POAAN (Poa annua (POAAN)): 100%
- herbicidal activity SETVI (Setaria viridis (SETVI) [8]): 100%
- herbicidal activity AMARE [9]: 100%
- herbicidal activity ABUTH [10]: 90%
- herbicidal activity ALOMY [11]: 100%
- herbicidal activity DIGSA [18]: 100%
- herbicidal effect STEME (Stellaria media (STEME) [12]): 100%
- herbicidal activity MATIN [19]: 100%
- herbicidal effect VERPE (Veronica persica (VERPE)): 100%
- herbicidal activity ECHCG [13]: 100%
- herbicidal effect LOLRI (Lolium rigidum (LOLRI) [14]): 80%
- herbicidal effect SETVI (Setaria viridis (SETVI) [15]): 80%

Structure (SMILES): Cc1cc2scnc2nc1-c1ccccc1 [Example I-041]
- herbicidal effect DIGSA [1]: 90%
- herbicidal effect MATIN [17]: 90%
- herbicidal effect POLCO [4]: 90%
- herbicidal effect AVEFA (Avena fatua [5]): 90%
- herbicidal effect KCHSC [6]: 100%
- LOLRI, activity rated visually (%) (Lolium rigidum (LOLRI) [7]): 100%
- herbicidal activity POAAN (Poa annua (POAAN)): 100%
- herbicidal activity SETVI (Setaria viridis (SETVI) [8]): 100%
- herbicidal activity AMARE [9]: 100%
- herbicidal activity ABUTH [10]: 100%
- herbicidal activity ALOMY [11]: 100%
- herbicidal activity DIGSA [18]: 100%
- herbicidal effect STEME (Stellaria media (STEME) [12]): 100%
- herbicidal activity MATIN [19]: 100%
- herbicidal effect VERPE (Veronica persica (VERPE)): 100%
- herbicidal activity ECHCG [13]: 100%
- herbicidal effect LOLRI (Lolium rigidum (LOLRI) [14]): 80%
- herbicidal effect SETVI (Setaria viridis (SETVI) [15]): 90%
- herbicidal effect ABUTH [16]: 90%

Structure (SMILES): Fc1ccccc1-c1ccc2scnc2n1 [Example I-036, 5-(2-fluorophenyl)thiazolo[4,5-b]pyridine]
- herbicidal effect ABUTH [2]: 90%
- STEME, herbicidal effect in percent (%) (Stellaria media (STEME) [20]): 90%
- herbicidal effect MATIN [17]: 100%
- herbicidal effect VIOTR (Viola tricolor (VIOTR) [3]): 100%
- herbicidal effect POLCO [4]: 90%
- herbicidal effect AVEFA (Avena fatua [5]): 100%
- LOLRI, activity rated visually (%) (Lolium rigidum (LOLRI) [7]): 100%
- herbicidal activity POAAN (Poa annua (POAAN)): 100%
- herbicidal activity SETVI (Setaria viridis (SETVI) [8]): 100%
- herbicidal activity AMARE [9]: 100%
- herbicidal effect STEME (Stellaria media (STEME) [12]): 100%
- herbicidal activity MATIN [19]: 100%
- herbicidal activity ECHCG [13]: 100%
- herbicidal effect LOLRI (Lolium rigidum (LOLRI) [14]): 80%
- herbicidal effect SETVI (Setaria viridis (SETVI) [15]): 80%
- herbicidal effect STEME (Stellaria media (STEME) [21]): 90%

Structure (SMILES): Cc1cc2scnc2nc1-c1ccsc1C [Example I-194]
- herbicidal effect AVEFA (Avena fatua [22]): 80%
- herbicidal effect MATIN [17]: 90%
- herbicidal effect VIOTR (Viola tricolor (VIOTR) [3]): 90%
- herbicidal effect POLCO [4]: 90%
- herbicidal effect KCHSC [6]: 100%
- LOLRI, activity rated visually (%) (Lolium rigidum (LOLRI) [7]): 100%
- herbicidal activity POAAN (Poa annua (POAAN)): 100%
- herbicidal activity AMARE [9]: 100%
- herbicidal activity ABUTH [10]: 90%
- herbicidal activity ALOMY [11]: 100%
- herbicidal effect STEME (Stellaria media (STEME) [12]): 100%
- herbicidal activity MATIN [19]: 100%
- herbicidal effect VERPE (Veronica persica (VERPE)): 100%
- herbicidal activity ECHCG [13]: 100%
- herbicidal effect SETVI (Setaria viridis (SETVI) [15]): 80%

Structure (SMILES): Fc1ccccc1-c1nc2ncsc2cc1Cl [Example I-017]
- herbicidal effect ABUTH [2]: 80%
- herbicidal effect MATIN [17]: 90%
- herbicidal effect POLCO [4]: 90%
- herbicidal effect AVEFA (Avena fatua [5]): 90%
- herbicidal effect KCHSC [6]: 90%
- LOLRI, activity rated visually (%) (Lolium rigidum (LOLRI) [7]): 100%
- herbicidal activity POAAN (Poa annua (POAAN)): 100%
- herbicidal activity SETVI (Setaria viridis (SETVI) [8]): 100%
- herbicidal activity AMARE [9]: 90%
- herbicidal activity ABUTH [10]: 90%
- herbicidal activity ALOMY [11]: 100%
- herbicidal activity DIGSA [18]: 100%
- herbicidal effect STEME (Stellaria media (STEME) [12]): 100%
- herbicidal effect VERPE (Veronica persica (VERPE)): 90%
- herbicidal activity ECHCG [13]: 100%
- herbicidal effect SETVI (Setaria viridis (SETVI) [15]): 80%
- herbicidal effect ABUTH [16]: 80%
- herbicidal effect VIOTR (Viola tricolor (VIOTR) [23]): 90%

Source: US20230151025A1, “SUBSTITUTED THIAZOLOPYRIDINES, SALTS THEREOF AND THEIR USE AS HERBICIDALLY ACTIVE SUBSTANCES” (Bayer Aktiengesellschaft, priority 2020, published 2023)
